Source: EP3587389A1 (INSTYTUT FARMACEUTYCZNY, priority 2018, dated 2020)

Columns and labels:
[1] = Oxidation inhibition of the o/w emulsion (lipid peroxidation, TBARS); conditions: for o/w emulsion (Inhibition of the oxidation (%)) / o/w emulsion (Inhibition of the oxidation), footnoted symbol: determined at 100 µM, flaxseed oil emulsion, oxidation induced with Mohr's salt, TBARS; for protection against the induced oxidation (in words): o/w emulsion model
Method: The emulsion was prepared according to the method described in Zarnowski R. et al., The oil of Adenanthera pavonina L. seeds and its emulsions. Z Naturforsch C. 2004;59(5-6):321-326; Jaromin A. et al., Emulsions of oil from Adenanthera pavonina L. seeds and their protective effect Cell Mol Biol Lett 2006; 11(3): 438-448). Briefly, 15 mg of sorbitan sesquioleate was added to 50 mg of flaxseed oil and vigorously mixed for 20 min. Then, 2 ml of an aqueous phase consisting of 10 mM Tris-HCl buffer, pH 7.4, was added. The sample was further vortexed for 15 min. and sonicated (Sonics & Materials Inc., Newton, CT, USA) for 10 min. in a coldwater bath. Then, 20 µl of the 1:1 (v/v) buffer diluted emulsion, methanolic solution of each compound (final concentration 100 µM) and 10 mM Tris-HCl buffer, pH 7.4, were mixed and incubated at room temperature for 10 min. To induce oxidation, 100 µl of freshly prepared aqueous solution of ammonium iron(II) sulfate hexahydrate (Mohr's salt) (5 mM) was added (total volume of the sample was 1 ml) and the samples were incubated at room temperature for 15 min. Flaxseed oil emulsion without any compound addition was included as control. After the oxidation step, determination of the thiobarbituric acid reacting substances (TBARS) was performed (Buege J.A., Aust S.D., Microsomal lipid peroxidation. Methods Enzymol. 1978;52:302-310). 2 ml of the thiobarbituric acid (TBA) reagent (15% trichloroacetic acid, 0.25 N HCl and 0.5% TBA) was added to each sample, mixed and heated at 100°C for 30 min. After centrifugation at 13 000 rpm for 10 min, the absorbance of the supernatants was measured at 535 nm. The obtained values were used to calculate the % of the oxidation inhibition according to the following equation: Inhibition of the oxidation (%) = [1−(absorbance of the sample/absorbance of control)] × 100 [formula]

[2] = DPPH free radical scavenging assay; conditions: for IC50: 30 min at room temperature, absorbance at 517 nm; for scavenging abilities (in words): DPPH assay
Method: J Nat Prod. 2010 Feb 26; 73(2): 252-4. doi: 10.1021/np900519d.) with a modification. Briefly, different concentrations of the compounds (100 µl) were mixed with 900 µl of the 0.04 mg/ml methanolic solution of DPPH. The mixture was kept at room temperature for 30 min, and then the absorbance at 517 nm was measured. The half maximal inhibitory concentration (IC50) was used as an indicating measure of the scavenging activity.

| Compound | o/w emulsion (Inhibition of the oxidation (%)) [1] [%] | IC50 [2] [µM] | o/w emulsion (Inhibition of the oxidation), footnoted symbol [1] | scavenging abilities (in words) [2] | protection against the induced oxidation (in words) [1] |
| --- | --- | --- | --- | --- | --- |
| O=C(O)/C=C/c1ccc(O)c(O)c1 [CA, Caffeic acid] | 26.1 ± 2.9 | 32.2 |  |  |  |
| CC(=O)/C=C/c1ccccc1O [Compound 6, 4-(2'-hydroxyphenyl)-3(E)-buten-2-one] |  | > 5000 | n.a.^b (no protection detected) | no scavenging abilities |  |
| COC(=O)/C=C/c1ccc(O)cc1 [Compound 8, 3-(4'-Hydroxyphenyl)-(E)-propenoic acid methyl ester] | 22.7 ± 6.4 | > 5000 |  | no scavenging abilities |  |
| COC(=O)/C=C/c1ccccc1O [Compound 9, 3-(2'-Hydroxyphenyl)-(E)-propenoic acid methyl ester] | 2.6 ± 1.5 | > 5000 |  | no scavenging abilities |  |
| COC(=O)/C=C/c1cccc(O)c1 [Compound 10, 3-(3'-Hydroxyphenyl)-(E)-propenoic acid methyl ester] | 18.4 ± 2.2 | > 5000 |  | no scavenging abilities |  |
| COC(=O)/C=C/c1ccc(O)cc1O [Compound 11, 3-(2',4'-dihydroxyphenyl)-(E)-propenoic acid methyl ester] | 33.7 ± 6.5 | 1020 |  |  |  |
| COC(=O)/C=C/c1ccc(O)c(O)c1O [Compound 12, 3-(2',3',4'-trihydroxyphenyl)-(E)-propenoic acid methyl ester] | 55.5 ± 2 | 18.6 |  |  | highest protection against the induced oxidation |
| COC(=O)/C=C/c1cc(O)c(O)cc1O [Compound 13, 3-(2',4',5'-trihydroxyphenyl)-(E)-propenoic acid methyl ester] | 38.6 ± 2.3 | 53.3 |  |  | highest protection against the induced oxidation |
| COC(=O)/C=C/c1ccc(O)c(OC)c1 [Compound 14, 3-(4'-hydroxy-3-metoxyphenyl)-(E)-propenoic acid methyl ester] | 14.8 ± 2 | 58.9 |  |  |  |
| CC(=O)/C=C/c1cccc(O)c1 [Compound 15, 4-(3'-hydroxyphenyl)-3(E)-buten-2-one] |  |  | n.a.^b (no protection detected) | no scavenging abilities |  |
| CC(=O)/C=C/c1ccc(O)cc1 [Compound 16, 4-(4'-hydroxyphenyl)-3(E)-buten-2-one] | 6.8 ± 4.4 | > 5000 |  | no scavenging abilities |  |
| CC(=O)/C=C/c1ccc(O)cc1O [Compound 17, 4-(2',4'-dihydroxyphenyl)-3(E)-buten-2-one] | 4.6 ± 1.3 | 688 |  |  |  |
| CC(=O)/C=C/c1ccc(O)c(O)c1O [Compound 18, 4-(2',3',4'-trihydroxyphenyl)-3(E)-buten-2-one] | 28.6 ± 4 | 16.8 |  |  | highest protection against the induced oxidation |
| COc1cc(/C=C/C(C)=O)ccc1O [Compound 20, 4-(3'-methoxy-4'-hydroxyphenyl)-3(E)-buten-2-one] | 7.9 ± 2.1 | 61.8 |  |  |  |
